In PMC12084609, “Structural insights into small-molecule agonist recognition and activation of complement receptor C3aR” (The EMBO Journal, 2025):
Residue numbers refer to the chain shown, from its start. Several values for one entry are separate records, joined by “and”; a condition that tells them apart may be missing. Equal values may be shown once. Read-outs that look alike come from different tables or passages of the source.

Assays:
Format in all cases: cell-based
C3aR L82^2.64A = molecular target: T1, C3aR L82^2.64A (Homo sapiens, UniProt Q16581, L82A); test: GloSensor-based cAMP assay, C3aR mutant L82A
T1 construct: expressed in transfected cells; host or cells: HEK293T
T1 sequence (Q16581 1-482 L82A): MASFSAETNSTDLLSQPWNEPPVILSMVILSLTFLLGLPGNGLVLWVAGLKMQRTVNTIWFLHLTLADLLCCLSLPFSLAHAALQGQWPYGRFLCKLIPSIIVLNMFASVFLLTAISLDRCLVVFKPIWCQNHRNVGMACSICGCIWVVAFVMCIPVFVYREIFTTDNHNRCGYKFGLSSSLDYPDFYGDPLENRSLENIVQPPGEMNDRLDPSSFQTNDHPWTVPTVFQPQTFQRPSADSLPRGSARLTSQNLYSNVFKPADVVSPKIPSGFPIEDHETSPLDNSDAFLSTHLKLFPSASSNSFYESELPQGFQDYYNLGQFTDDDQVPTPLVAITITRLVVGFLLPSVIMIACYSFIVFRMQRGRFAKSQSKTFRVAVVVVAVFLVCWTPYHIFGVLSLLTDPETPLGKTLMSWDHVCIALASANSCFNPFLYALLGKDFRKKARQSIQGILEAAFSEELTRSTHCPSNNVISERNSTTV
Method: (§1) HEK293T cells were seeded on 6-well plates (NEST) and transfected with pGlosensor™-22F plasmids (Promega) and pcDNA3.1 plasmids encoding C3aR or its mutants an with N-terminal FLAG tag. After 48 h, cells were detached with Accutase solution (Sigma-Aldrich) and washed with PBS, and resuspended in assay buffer (CO2-independent medium with 0.5 mg mL^−1D-luciferin). 100,000–200,000 cells were seeded on 96-well white bottom plates (SPL) and incubated at 37 °C for 45 min followed by 45 min incubation at room temperature. After 90 min of incubation, basal luminescence signals were recorded. In total, 25 μl of test ligand with various concentrations and 1 μM Forskolin (Sigma-Aldrich) were treated to the cells and luminescence signals were measured by Tristar 2 LB 942 multimode reader (Berthold). […] Relative luminescence unit (%) was calculated with the signal of wells treated with vehicle as 0% and the signal of wells treated with 1 μM Forskolin as 100% (DiRaddo et al, [2014]). Nonlinear regression was performed using a three-parameter logistic equation.

[1] = molecular target: T2, C3aR I102^3.32A/I421^7.39A (Homo sapiens, UniProt Q16581, I102A/I421A); test: GloSensor-based cAMP assay, C3aR double mutant I102A/I421A
T2 construct: expressed in transfected cells; host or cells: HEK293T
T2 sequence (Q16581 1-482 I102A/I421A): T1 sequence (Q16581 1-482 L82A) with A82L, I102A, I421A
Method: as §1

C3aR H81^2.63A = molecular target: T3, C3aR H81^2.63A (Homo sapiens, UniProt Q16581, H81A); test: GloSensor-based cAMP assay, C3aR mutant H81A
T3 construct: expressed in transfected cells; host or cells: HEK293T
T3 sequence (Q16581 1-482 H81A): T1 sequence (Q16581 1-482 L82A) with H81A, A82L
Method: as §1

C3aR = C3aR (Homo sapiens, UniProt Q16581); test: Gi recruitment BRET assay (C3aR-eYFP / Gαi-Rluc8, HEK293T); conditions: for ΔBRET (ligand-vehicle): individual replicates
Method: HEK293T cells were seeded on 6-well plates (NEST) and transfected with pcDNA3.1 plasmids encoding C3aR-eYFP, Gαi-Rluc8, Gβ1, and Gγ2 with a ratio of 5:1:1:1. After 48 h, cells were harvested and resuspended with in PBS. Cells were treated with test ligand with various concentrations and seeded on 96-well white bottom plates (SPL). After 3 min incubation at 37 °C, coelenterazine h (Nanolight) was added with a final concentration of 10 μM. Luminescence and fluorescence were measured using a Tristar 2 LB 942 multimode reader (Berthold).

[2] = Dunnett's multiple comparisons test, WT minus mutant

Sequence of C3aR (Q16581 whole entry): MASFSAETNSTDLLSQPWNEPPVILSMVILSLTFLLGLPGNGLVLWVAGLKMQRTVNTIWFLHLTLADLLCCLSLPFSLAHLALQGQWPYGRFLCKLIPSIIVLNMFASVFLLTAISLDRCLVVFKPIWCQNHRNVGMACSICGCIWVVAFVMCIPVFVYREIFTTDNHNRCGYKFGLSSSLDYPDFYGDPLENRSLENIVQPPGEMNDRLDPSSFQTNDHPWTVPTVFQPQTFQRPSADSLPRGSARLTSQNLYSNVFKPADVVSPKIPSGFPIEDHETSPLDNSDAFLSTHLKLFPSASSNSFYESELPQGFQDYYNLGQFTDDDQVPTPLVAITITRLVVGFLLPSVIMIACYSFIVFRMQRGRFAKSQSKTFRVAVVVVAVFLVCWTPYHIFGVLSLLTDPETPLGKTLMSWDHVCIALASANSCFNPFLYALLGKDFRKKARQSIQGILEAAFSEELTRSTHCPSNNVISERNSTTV
Sequence of C3aR (P63096 2-354 partner limits assumed): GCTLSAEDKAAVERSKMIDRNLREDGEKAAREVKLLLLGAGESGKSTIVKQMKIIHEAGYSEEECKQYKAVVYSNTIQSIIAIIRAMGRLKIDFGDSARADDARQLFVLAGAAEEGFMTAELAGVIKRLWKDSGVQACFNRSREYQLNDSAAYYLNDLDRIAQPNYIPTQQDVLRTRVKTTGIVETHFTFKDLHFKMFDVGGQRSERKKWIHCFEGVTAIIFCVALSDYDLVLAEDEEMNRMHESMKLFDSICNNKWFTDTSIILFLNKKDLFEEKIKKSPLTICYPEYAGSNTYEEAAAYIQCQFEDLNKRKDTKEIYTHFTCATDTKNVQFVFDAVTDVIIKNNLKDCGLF
Sequence of C3aR (P62873 2-340 partner limits assumed): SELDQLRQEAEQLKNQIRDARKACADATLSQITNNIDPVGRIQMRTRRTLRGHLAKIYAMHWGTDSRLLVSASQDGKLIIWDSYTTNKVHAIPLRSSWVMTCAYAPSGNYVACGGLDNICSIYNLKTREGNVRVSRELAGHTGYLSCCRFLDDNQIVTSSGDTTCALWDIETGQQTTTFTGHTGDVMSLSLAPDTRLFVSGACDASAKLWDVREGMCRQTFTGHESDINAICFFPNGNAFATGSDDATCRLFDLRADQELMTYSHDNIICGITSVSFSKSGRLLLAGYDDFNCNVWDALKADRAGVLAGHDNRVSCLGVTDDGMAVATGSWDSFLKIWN
Sequence of C3aR (P59768 2-68 partner limits assumed): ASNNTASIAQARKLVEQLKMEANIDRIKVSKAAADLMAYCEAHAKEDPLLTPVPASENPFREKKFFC

## Cc1cc(C(c2ccc(Cl)cc2)c2ccc(Cl)cc2)sc1C(=O)N[C@@H](CCCNC(=N)N)C(=O)O [JR14a, reference compound]
C3aR L82^2.64A; [2]
  Mean Diff. of pIC50, WT vs. L82A: -0.402
C3aR L82^2.64A; IC50, L82^2.64A, dose-response plot
  IC50: 2.07 nM
C3aR L82^2.64A; L82A, Log[JR14a (M)] -6, single replicates, read-out: cAMP response (% Forskolin)
  remaining activity at 1 µM: 9.36%
C3aR L82^2.64A; L82A, Log[JR14a (M)] -7, single replicates, read-out: cAMP response (% Forskolin)
  remaining activity at 0.1 µM: 8.92%
C3aR L82^2.64A; L82A, Log[JR14a (M)] -8, single replicates, read-out: cAMP response (% Forskolin)
  remaining activity at 0.01 µM: 34.1%
C3aR L82^2.64A; L82A, Log[JR14a (M)] -9, single replicates, read-out: cAMP response (% Forskolin)
  remaining activity at 0.001 µM: 62.6%
C3aR L82^2.64A; L82A, Log[JR14a (M)] -10, single replicates, read-out: cAMP response (% Forskolin)
  remaining activity at 0.0001 µM: 93.2%
C3aR L82^2.64A; L82A, Log[JR14a (M)] -11, single replicates, read-out: cAMP response (% Forskolin)
  remaining activity at 10 pM: 106%
C3aR L82^2.64A; L82^2.64A relative to WT C3aR
  ΔpIC50 ± SE of Diff.: 0.40 ± 0.14
C3aR L82^2.64A; pIC50 (Replicate), L82^2.64A, individual replicates
  IC50: 1.55 nM and 3.39 nM and 1.66 nM
C3aR L82^2.64A; pIC50 ± SEM (Mean), L82^2.64A, mean of independent experiments
  IC50: 2.04 nM
[1]; I102^3.32A/I421^7.39A relative to WT C3aR
  ΔpIC50 ± SE of Diff.: -2.34 ± 0.08
[1]; IC50, I102^3.32A/I421^7.39A, dose-response plot
  IC50: 1590 nM
[1]; pIC50 (Replicate), I102^3.32A/I421^7.39A, individual replicates
  IC50: 2450 nM and 1150 nM and 1740 nM
[1]; pIC50 ± SEM (Mean), I102^3.32A/I421^7.39A, mean of independent experiments
  IC50: 1700 nM
C3aR H81^2.63A; [2]
  Mean Diff. of pIC50, WT vs. H81A: 0.544
C3aR H81^2.63A; H81A, Log[JR14a (M)] -9, single replicates, read-out: cAMP response (% Forskolin)
  remaining activity at 0.001 µM: 94.5%
C3aR H81^2.63A; H81A, Log[JR14a (M)] -10, single replicates, read-out: cAMP response (% Forskolin)
  remaining activity at 0.0001 µM: 95.5%
C3aR H81^2.63A; H81A, Log[JR14a (M)] -11, single replicates, read-out: cAMP response (% Forskolin)
  remaining activity at 10 pM: 93.3%
C3aR H81^2.63A; H81^2.63A relative to WT C3aR
  ΔpIC50 ± SE of Diff.: -0.54 ± 0.05
C3aR H81^2.63A; H81^2.63A, individual replicates, read-out: pIC50 (Replicate) (converted)
  IC50: 6.31 nM
C3aR H81^2.63A; IC50, H81^2.63A, dose-response plot
  IC50: 12.4 nM
C3aR H81^2.63A; pIC50 (Replicate), H81^2.63A, individual replicates
  IC50: 12 nM and 16.2 nM and 18.2 nM
C3aR; Log[ligand (M)] -6
  ΔBRET (ligand-vehicle): 0.012 and 0.008 and 0.015 and 0.018
C3aR; Log[ligand (M)] -7
  ΔBRET (ligand-vehicle): 0.005 and 0.015 and 0.017
C3aR; Log[ligand (M)] -8
  ΔBRET (ligand-vehicle): 0.004 and 0.00244 and 0.012 and 0.018
C3aR; Log[ligand (M)] -9
  ΔBRET (ligand-vehicle): 0.002 and -0.000881 and 0.00951 and 0.012
C3aR; Log[ligand (M)] -10
  ΔBRET (ligand-vehicle): 0.00084 and -0.0022 and 0.006 and 0.009
C3aR; Log[ligand (M)] -11
  ΔBRET (ligand-vehicle): 0.001 and -0.004 and 0.005 and 0.010
C3aR; Log[ligand (M)] -12
  ΔBRET (ligand-vehicle): -6.28e-5 and 0.00465 and 0.004
C3aR; dose-dependent increase in BRET ratio, read-out: EC50
  EC50: 5 nM
C3aR; pEC50 ± SEM, Gi recruitment to C3aR, Appendix Table S1A
  EC50: 4.57 nM
C3aR; span of ΔBRET curve, Figure EV1A numerical data
  Span Value: 0.010
